Assay results: patent US11236055B2 (Venenum Biodesign, LLC, priority 2016, dated 2022)

Assays:
human TGR5 receptor = biological target: T1, human TGR5 receptor (Homo sapiens, UniProt Q8TDU6); test: Human TGR5 cAMP production assay; type: cell-based; conditions: human TGR5, luminescent cAMP assay; coded A-D; read-out: Human TGR5 Lum. cAMP Activity (EC50)
T1 construct: host or cells: CHO-K1 (hTGR5-CHO cells)
T1 sequence (Q8TDU6 1-330): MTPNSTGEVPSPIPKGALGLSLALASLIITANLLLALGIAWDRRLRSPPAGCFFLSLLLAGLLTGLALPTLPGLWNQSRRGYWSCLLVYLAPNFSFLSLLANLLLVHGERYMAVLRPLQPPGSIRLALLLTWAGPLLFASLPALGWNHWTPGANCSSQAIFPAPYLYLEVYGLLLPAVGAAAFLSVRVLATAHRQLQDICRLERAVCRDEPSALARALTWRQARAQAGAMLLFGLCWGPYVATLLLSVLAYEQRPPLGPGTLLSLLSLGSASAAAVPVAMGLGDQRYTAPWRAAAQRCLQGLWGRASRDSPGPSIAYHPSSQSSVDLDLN
Procedure, shortened: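 CHO-K1 cells stably expressing human TGR5, with IBMX and cAMP antibody, were exposed to half-log serially diluted compound for 1 h at room temperature. cAMP measured by enzyme-fragment complementation luminescence (XS+ kit) after overnight incubation; EC50 values reported.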

Mouse STC-1 cells = test: STC-1 GLP-1 assay; type: cell-based; conditions: GLP-1 secretion, 2 h, coded A-C, read-out: Mouse STC-1 HTRF GLP-1 Activity (EC50)
Method: We evaluated Compounds of the present invention for their ability to induce GLP-1 production in mouse intestinal neuroendocrine tumor cells. Mouse STC-1 cells were cultured and maintained in high glucose DMEM (Sigma #5796) supplemented with 15% horse serum, 5% Fetal Bovine Serum (FBS), 1% penicillin/streptomycin, and 2 mM L-alanine L-glutamine (GlutaMax). Two days prior to analysis of GLP-1 secretion cells were harvested using Accutase (Sigma), spun down then resuspended in high glucose DMEM media containing 2 mM L-alanine L-glutamine (GlutaMax), 10% charcoal-dextran stripped FBS, and 50 μg/mL Gentamicin, at a density of 100,000 cells/mL. 100 μL of cell suspension was added to each well of a 96-well Poly-D-Lysine coated culture plate (Sigma; cat #2382493) and was incubated at 37° C. with 5% CO2.
Compounds were initially diluted in 100% DMSO (12-point serial dilution by half logs) in a 96-well plate and then were further diluted 1:500 in Hanks' Balanced Salt Solution (HBSS) containing protease inhibitor cocktail, DPP-IV inhibitor, and 0.1% fatty acid free bovine serum albumin. On the day of the experiment cells were washed once with HBSS. After wash, 100 μL of test compound was added to each well. The plate was incubated at 37° C. with 5% CO2 for 2 h. Supernatants were collected and GLP-1 secretion was measured using the Cisbio™ Active GLP-1 HTRF Assay Kit (Cisbio). Briefly, Anti-GLP-1-d2 conjugate and Anti-GLP-1 Terbium Cryptate conjugate stock solutions were prepared as per kit instructions. The two solutions were pre-mixed and 10 μL were transferred to a 384-well low volume plate (Greiner; cat #784075). 10 μL of collected supernatants were added to wells already containing the conjugate solution. The plate was covered and incubated at room temperature overnight. The plate was read on an Envision™ plate reader (Perkin Elmer).
In Table 34, EC50 values obtained from the STC-1 GLP-1 production assay for compounds of the present invention are summarized.

mouse TGR5 receptor = biological target: T2, mouse TGR5 receptor (Mus musculus, UniProt Q80SS6); test: Mouse TGR5 cAMP production assay (HTRF, Cisbio cAMP HiRange); type: cell-based; conditions: HEK293-EBNA cells overexpressing mouse TGR5, HTRF cAMP HiRange; coded A-D
T2 construct: expressed in transfected cells; host or cells: HEK293-EBNA (293 c18, ATCC CRL10852), Hygromycin B selection
T2 sequence (Q80SS6 1-329): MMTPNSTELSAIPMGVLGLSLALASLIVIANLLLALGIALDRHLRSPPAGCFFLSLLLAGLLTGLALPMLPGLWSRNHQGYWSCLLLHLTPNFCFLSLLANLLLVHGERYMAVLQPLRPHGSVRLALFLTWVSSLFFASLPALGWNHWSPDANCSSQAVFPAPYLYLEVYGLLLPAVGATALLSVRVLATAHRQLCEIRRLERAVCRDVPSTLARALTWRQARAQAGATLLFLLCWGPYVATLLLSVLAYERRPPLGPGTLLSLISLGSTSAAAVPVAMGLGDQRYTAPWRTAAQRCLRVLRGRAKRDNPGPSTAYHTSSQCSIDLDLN
Procedure, shortened: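 cAMP read by HTRF competition after 1 h room-temperature compound exposure of mouse TGR5-overexpressing HEK293-EBNA cells. Cells were suspended in serum-free DMEM containing 500 μM IBMX; compounds ran as 12-point half-log dilutions in duplicate; EC50 derived.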

[1] = Pharmacokinetic profile in mice; type: in vivo; conditions: mouse; fasted male Hilltop mice, 10 mg/kg oral gavage, plasma, mean of three mice
Method: Pharmacokinetic Profile in Mice
In this series of studies, the pharmacokinetic profile characteristics of compounds of the present invention were evaluated. The plasma concentration levels of the compounds were monitored in the blood stream (i.e., plasma) after oral gavage using Cmax, and area under the curve (AUC).
8 week old male Hilltop mice were fasted overnight. Animals were randomized into groups (n=9) by body weight. Mice were dosed with 10 mg/kg compound (in 20% PEG400/80% 0.5% carboxymethylcellulose (medium viscosity)+0.25% Tween-80) at a volume of 10 mL/kg through oral gavage. Blood was collected via orbital bleeding at 0, 0.25, 0.5, 1, 2, and 4 h post-dose, with no one mouse having more than 3 blood draws. Blood was collected in EDTA coated tubes. Samples were stored at −20° C. until analysis.
Quantitation of compound levels in plasma was accomplished by LC-MS/MS analysis. Standard curve and quality control samples were prepared in male CD-1 mouse plasma containing EDTA K^2+ as an anticoagulant at final concentrations ranging from 500 to 0.1 ng/mL. The plasma samples, calibration curve standards, and quality control samples were prepared in an identical method in a 96-well deep plate (1 mL) with a quenching solution (1:1 mixed acetonitrile:methanol containing the internal standard Reserpine @ 400 ng/mL). Low volume samples were supplemented with CD-1 mouse plasma. The plate was mixed on multi-tube votex for 1 min and centrifuged at 4000 rpm for 30 min at 4° C. (Sorvall® Super T21) before LC-MS/MS analysis. LC conditions were developed and optimized based on each compound as needed. The outlet of the column was coupled to AB Sciex 4000 QTrap Mass Spectrometer (AB Sciex, Brugg Switzerland). Detection was carried out using multiple reaction monitoring mode with positive-ion detection focusing. The pharmacokinetic parameters were derived from the plasma-time data and calculated using the standard non-compartmental method with WinNonlin (Pharsight, Mountain View, Calif.) or PK Solver (Comp. Meth. Prog. Biomed. (2010), 99, 306-314).
Values reported are the mean plasma concentration of three mice.

SMILES | EC50 (human TGR5 receptor) | EC50 (Mouse STC-1 cells) | EC50 (mouse TGR5 receptor) | Cmax [1]
Cc1cnccc1-c1cccc(C2CN(CCCC(=O)NCS(=O)(=O)O)CCN2S(=O)(=O)c2cccc(Cl)c2C)c1 (stereo not drawn) [Compound 53, (4-(4-((3-Chloro-2-methylphenyl)sulfonyl)-3-(3-(3-methylpyridin-4-yl)phenyl)piperazin-1-yl)butanamido)methanesulfonic acid] | 100 to 999 nM | 100 to 999 nM | < 100 nM | 
COC(=O)CN(C(C)(C)c1cccc(-c2ccncc2C)c1)S(=O)(=O)c1ccccc1C(F)(F)F [Compound 13, Methyl 2-(N-(2-(3-(3-methylpyridin-4-yl)phenyl)propan-2-yl)-2-(trifluoromethyl)phenylsulfonamido)acetate] | < 100 nM | 1000 to 30000 nM | 100 to 999 nM | 
Cc1cnccc1-c1cccc(C(C)(C)N(CCCC(=O)NCCS(N)(=O)=O)S(=O)(=O)c2cccc(Cl)c2C)c1 [Compound 20AE, 4-(3-chloro-2-methyl-N-(2-(3-(3-methylpyridin-4-yl)phenyl)propan-2-yl)phenylsulfonamido)-N-(2-sulfamoylethyl)butanamide] | < 100 nM |  | < 100 nM | 128 ng/mL
Cc1cnccc1-c1cccc(C(C)(C)N(CCCC(=O)NCCS(=O)(=O)O)S(=O)(=O)c2cccc(Cl)c2C)c1 [Compound 20AG, 2-(4-(3-chloro-2-methyl-N-(2-(3-(3-methylpyridin-4-yl)phenyl)propan-2-yl)phenylsulfonamido)butanamido)ethanesulfonic acid] | < 100 nM |  | < 100 nM | 1.4 ng/mL
CCc1cnccc1-c1cccc(C2CN(S(=O)(=O)CC(=O)O)CCN2S(=O)(=O)c2cccc(Cl)c2C)c1 (stereo not drawn) [Compound 47, 2-((4-((3-Chloro-2-methylphenyl)sulfonyl)-3-(3-(3-ethylpyridin-4-yl)phenyl)piperazin-1-yl)sulfonyl)acetic acid] | < 100 nM |  | < 100 nM | 228 ng/mL
Cc1cnccc1-c1cccc(C2(N(CCCC(=O)NCCS(=O)(=O)O)S(=O)(=O)c3cccc(Cl)c3C)COC2)c1 [Compound 20BN, 2-(4-(3-chloro-2-methyl-N-(3-(3-(3-methylpyridin-4-yl)phenyl)oxetan-3-yl)phenylsulfonamido)butanamido)ethanesulfonic acid] | < 100 nM |  | 100 to 999 nM | 478 ng/mL
CCc1cnccc1-c1cccc(C2CN(C(=O)CCCC(=O)O)CCN2S(=O)(=O)c2cccc(Cl)c2C)c1 (stereo not drawn) [Compound 46AA, 5-(4-((3-chloro-2-methylphenyl)sulfonyl)-3-(3-(3-ethylpyridin-4-yl)phenyl)piperazin-1-yl)-5-oxopentanoic acid] | < 100 nM |  | < 100 nM | 1.6 ng/mL
Cc1cnccc1-c1cccc(C(C)(C)N(CCCC(=O)NCC[N+](C)(C)C)S(=O)(=O)c2cccc(Cl)c2C)c1 [Compound 27AD, 2-(4-(3-chloro-2-methyl-N-(2-(3-(3-methylpyridin-4-yl)phenyl)propan-2-yl)phenylsulfonamido)butanamido)-N,N,N-trimethylethanaminium] | < 100 nM |  | 100 to 999 nM | 25.4 ng/mL
Cc1cnccc1-c1cccc([C@H](C)N(CCCC(=O)NCCS(=O)(=O)O)S(=O)(=O)c2cccc(Cl)c2C)c1 [Compound 21AG, (S)-2-(4-(3-chloro-2-methyl-N-(1-(3-(3-methylpyridin-4-yl)phenyl)ethyl)phenylsulfonamido)butanamido)ethanesulfonic acid] | < 100 nM |  | < 100 nM | 14.3 ng/mL
CCc1cnccc1-c1cccc(C2CN(CCCC(=O)O)CCN2S(=O)(=O)c2cccc(Cl)c2C)c1 (stereo not drawn) [Compound 52AA, 4-(4-((3-chloro-2-methylphenyl)sulfonyl)-3-(3-(3-ethylpyridin-4-yl)phenyl)piperazin-1-yl)butanoic acid] | < 100 nM |  | < 100 nM | 647 ng/mL
Cc1cnccc1-c1cccc([C@H](C)N(CCCC(=O)NCCS(=O)(=O)NCC(=O)O)S(=O)(=O)c2cccc(Cl)c2Cl)c1 [Compound 36AA, (S)-2-(4-(3-chloro-N-(1-(3-(3-methylpyridin-4-yl)phenyl)ethyl)-2-chloro-phenylsulfonamido)butanamido)ethanesulfonamido acetic acid] | < 100 nM |  | < 100 nM | 7.5 ng/mL

Second part, the molecule after the results:

EC50 (human TGR5 receptor) | EC50 (Mouse STC-1 cells) | EC50 (mouse TGR5 receptor) | Cmax [1] | SMILES
< 100 nM | 1000 to 30000 nM | < 100 nM |  | CCOC(=O)C[C@H](NS(=O)(=O)c1ccccc1C(F)(F)F)c1cccc(-c2ccncc2C)c1 [Compound 18A, (S)-ethyl 3-(3-(3-methylpyridin-4-yl)phenyl)-3-(2-(trifluoromethyl)phenylsulfonamido)-propanoate]
< 100 nM | 1000 to 30000 nM | < 100 nM |  | COc1cnccc1-c1cccc(C(C)(C)NS(=O)(=O)c2cccc(Cl)c2Cl)c1 [Compound 2BC]
< 100 nM | 1000 to 30000 nM | 100 to 999 nM |  | Cc1cnccc1-c1cccc(C(NS(=O)(=O)c2ccccc2C(F)(F)F)C2CC2)c1 (racemic) [Compound 5AV, (+/−)N-(cyclopropyl(3-(3-methylpyridin-4-yl)phenyl)-methyl)-2-(trifluoromethyl)benzenesulfonamide]
< 100 nM | 100 to 999 nM | < 100 nM |  | COc1cnccc1-c1cccc(C(C)(C)NS(=O)(=O)c2cccc(Cl)c2C)c1 [Compound 2BL]
< 100 nM |  | < 100 nM | 122 ng/mL | Cc1cnccc1-c1cccc([C@H](C)N(CCCC(=O)NCCNS(N)(=O)=O)S(=O)(=O)c2cccc(Cl)c2C)c1 [Compound 37, (S)-4-(3-chloro-2-methyl-N-(1-(3-(3-methylpyridin-4-yl)phenyl)ethyl)phenylsulfonamido)-N-(2-(sulfamoylamino)ethyl)butanamide]
